One assay concerns the target T1, PIP4K2C (Homo sapiens, UniProt Q8TBX8).
T1 sequence (Q8TBX8 2-421): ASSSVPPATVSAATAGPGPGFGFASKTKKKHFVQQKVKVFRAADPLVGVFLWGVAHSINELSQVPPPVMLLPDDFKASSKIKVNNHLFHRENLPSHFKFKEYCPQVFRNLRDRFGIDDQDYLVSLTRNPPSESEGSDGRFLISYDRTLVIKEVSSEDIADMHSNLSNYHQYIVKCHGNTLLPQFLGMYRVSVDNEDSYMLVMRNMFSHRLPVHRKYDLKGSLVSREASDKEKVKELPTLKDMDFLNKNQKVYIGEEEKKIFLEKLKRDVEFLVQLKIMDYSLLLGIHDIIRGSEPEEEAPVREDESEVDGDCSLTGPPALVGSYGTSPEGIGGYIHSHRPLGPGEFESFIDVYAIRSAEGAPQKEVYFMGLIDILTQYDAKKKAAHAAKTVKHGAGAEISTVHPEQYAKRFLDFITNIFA
Nature of the assay: KiNativ ATP-probe chemoproteomics in A375 cells treated with WX8; in vitro kinase binding assay (Fig. 2F). In kind it is biochemical.

Another assay concerns the target PIKFYVE (Homo sapiens, UniProt Q9Y2I7). The assay is described as above. In kind it is cell-based. The following applies: A-375.
Another assay concerns the target T2, CHUK/IKKA (Homo sapiens, UniProt O15111).
T2 sequence (O15111 1-745): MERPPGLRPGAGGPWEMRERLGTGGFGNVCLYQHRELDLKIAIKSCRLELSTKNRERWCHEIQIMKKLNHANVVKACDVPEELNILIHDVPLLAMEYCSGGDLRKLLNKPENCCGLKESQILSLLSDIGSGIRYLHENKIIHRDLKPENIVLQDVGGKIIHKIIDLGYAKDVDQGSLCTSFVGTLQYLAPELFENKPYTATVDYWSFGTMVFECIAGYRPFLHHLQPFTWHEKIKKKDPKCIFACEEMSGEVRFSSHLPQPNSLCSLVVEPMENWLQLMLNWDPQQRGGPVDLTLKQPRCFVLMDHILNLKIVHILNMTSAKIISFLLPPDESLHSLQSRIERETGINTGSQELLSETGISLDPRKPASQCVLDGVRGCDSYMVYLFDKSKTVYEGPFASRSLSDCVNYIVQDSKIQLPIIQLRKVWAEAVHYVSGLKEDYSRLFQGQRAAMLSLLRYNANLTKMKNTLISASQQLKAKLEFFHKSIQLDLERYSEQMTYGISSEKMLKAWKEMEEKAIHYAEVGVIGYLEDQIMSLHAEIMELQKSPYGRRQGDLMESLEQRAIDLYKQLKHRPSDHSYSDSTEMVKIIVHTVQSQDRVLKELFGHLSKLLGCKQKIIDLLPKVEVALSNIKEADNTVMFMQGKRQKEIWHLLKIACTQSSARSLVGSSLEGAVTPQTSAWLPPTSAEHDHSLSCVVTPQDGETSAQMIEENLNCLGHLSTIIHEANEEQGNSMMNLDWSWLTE
Nature of the assay: KiNativ ATP-probe chemoproteomics in A375 cells treated with WX8. The format is cell-based. Particulars: A-375.

Sequence of PIKFYVE (Q9Y2I7 2-2098): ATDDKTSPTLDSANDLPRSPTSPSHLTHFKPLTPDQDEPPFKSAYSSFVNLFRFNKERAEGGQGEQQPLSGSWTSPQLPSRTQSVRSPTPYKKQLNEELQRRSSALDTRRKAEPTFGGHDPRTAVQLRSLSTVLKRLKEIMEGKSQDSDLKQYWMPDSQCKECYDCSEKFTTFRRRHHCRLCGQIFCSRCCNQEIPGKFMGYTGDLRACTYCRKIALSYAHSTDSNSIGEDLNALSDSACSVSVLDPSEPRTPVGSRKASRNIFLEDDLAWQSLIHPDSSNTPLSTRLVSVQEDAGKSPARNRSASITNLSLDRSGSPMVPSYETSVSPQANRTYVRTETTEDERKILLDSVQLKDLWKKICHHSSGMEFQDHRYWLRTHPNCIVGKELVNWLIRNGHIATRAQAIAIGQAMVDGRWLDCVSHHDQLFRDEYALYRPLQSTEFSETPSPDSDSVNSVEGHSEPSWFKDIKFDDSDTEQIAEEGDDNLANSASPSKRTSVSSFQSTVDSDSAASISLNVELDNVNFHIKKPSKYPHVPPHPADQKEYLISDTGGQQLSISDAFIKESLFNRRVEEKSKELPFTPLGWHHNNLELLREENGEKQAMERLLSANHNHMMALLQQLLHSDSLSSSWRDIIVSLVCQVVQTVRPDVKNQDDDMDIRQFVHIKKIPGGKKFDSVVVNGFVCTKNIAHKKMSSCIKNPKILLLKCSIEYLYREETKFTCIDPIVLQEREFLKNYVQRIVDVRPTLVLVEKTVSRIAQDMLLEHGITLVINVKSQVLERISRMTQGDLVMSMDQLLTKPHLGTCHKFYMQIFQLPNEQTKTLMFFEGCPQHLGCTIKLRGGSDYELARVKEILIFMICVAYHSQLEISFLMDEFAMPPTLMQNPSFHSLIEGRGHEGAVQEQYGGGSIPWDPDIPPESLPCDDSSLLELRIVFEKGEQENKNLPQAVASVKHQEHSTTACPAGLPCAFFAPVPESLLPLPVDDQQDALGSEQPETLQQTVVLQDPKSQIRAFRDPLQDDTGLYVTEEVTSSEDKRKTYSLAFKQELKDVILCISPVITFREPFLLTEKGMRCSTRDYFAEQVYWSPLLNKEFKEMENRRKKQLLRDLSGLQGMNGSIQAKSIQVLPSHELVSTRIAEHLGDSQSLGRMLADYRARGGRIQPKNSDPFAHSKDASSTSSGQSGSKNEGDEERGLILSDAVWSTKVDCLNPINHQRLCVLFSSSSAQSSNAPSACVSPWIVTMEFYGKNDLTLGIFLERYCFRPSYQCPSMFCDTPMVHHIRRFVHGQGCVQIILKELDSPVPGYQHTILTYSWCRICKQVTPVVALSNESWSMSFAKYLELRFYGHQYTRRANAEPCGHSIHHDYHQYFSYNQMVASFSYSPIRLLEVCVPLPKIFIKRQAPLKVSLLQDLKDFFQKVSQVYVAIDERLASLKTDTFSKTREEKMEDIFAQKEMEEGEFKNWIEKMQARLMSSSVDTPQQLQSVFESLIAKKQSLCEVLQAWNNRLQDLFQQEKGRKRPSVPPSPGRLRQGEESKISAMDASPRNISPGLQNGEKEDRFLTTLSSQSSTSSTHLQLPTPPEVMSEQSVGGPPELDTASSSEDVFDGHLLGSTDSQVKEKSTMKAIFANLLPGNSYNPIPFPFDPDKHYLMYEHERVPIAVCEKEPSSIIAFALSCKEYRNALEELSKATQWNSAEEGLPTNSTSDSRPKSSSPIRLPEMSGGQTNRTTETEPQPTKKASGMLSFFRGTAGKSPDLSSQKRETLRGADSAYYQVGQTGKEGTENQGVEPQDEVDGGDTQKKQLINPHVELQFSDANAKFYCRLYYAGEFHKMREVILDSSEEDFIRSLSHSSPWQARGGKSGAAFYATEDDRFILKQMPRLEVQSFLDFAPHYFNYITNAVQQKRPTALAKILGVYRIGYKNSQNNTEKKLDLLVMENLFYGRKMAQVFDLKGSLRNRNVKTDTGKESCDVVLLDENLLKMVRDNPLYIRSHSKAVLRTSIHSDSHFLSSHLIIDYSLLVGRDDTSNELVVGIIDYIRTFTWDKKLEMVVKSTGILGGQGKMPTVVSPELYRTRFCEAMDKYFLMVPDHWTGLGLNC

For the compound `C(=NNc1nc(Nc2ccccc2)nc(N2CCOCC2)n1)c1c[nH]c2ccccc12` [WX8, 1H-indole-3-carbaldehyde (4-anilino-6-[4-morpholinyl]-1,3,5-triazin-2-yl)hydrazone], on PIP4K2C, the concentration for half-maximal inhibition (IC50) is ~1000 nM. The inhibition at 1 µM at PIKFYVE was found to be 97%; on CHUK/IKKA, 39%.

As usually defined, the IC50 is the point on the concentration scale where inhibition reaches its midpoint. Higher therefore signals a need for much substance. Broadly, the inhibition is the drop in the measured response relative to a control, in per cent. Low values mean little suppression, high ones strong suppression.

The values are drawn from PMC10392749, “PIP5K1C phosphoinositide kinase deficiency distinguishes PIKFYVE-dependent cancer cells from non-malignant cells” (Autophagy, 2023).
